Literature values, collected in patent publication US9949928B2, “Biodegradable copolymers, systems including the copolymers, and methods of forming and using same” (The Regents of the University of Colorado, a body corporate, priority 2013, dated 2018).

Details: cited from earlier work

CC1(C)O[C@@H]2C[C@H]3[C@@H]4CCC5=CC(=O)C=C[C@]5(C)[C@@]4(F)[C@@H](O)C[C@]3(C)[C@]2(C(=O)CO)O1 [triamcinolone acetonide]
log P: 1.16
